Molecules are shown by their SMILES.

The test deals with T1, recombinant human GR (Homo sapiens, UniProt P04150).
T1 construct: purchased Panvera/Invitrogen P2812 (kit P2893)
T1 sequence (P04150 1-777): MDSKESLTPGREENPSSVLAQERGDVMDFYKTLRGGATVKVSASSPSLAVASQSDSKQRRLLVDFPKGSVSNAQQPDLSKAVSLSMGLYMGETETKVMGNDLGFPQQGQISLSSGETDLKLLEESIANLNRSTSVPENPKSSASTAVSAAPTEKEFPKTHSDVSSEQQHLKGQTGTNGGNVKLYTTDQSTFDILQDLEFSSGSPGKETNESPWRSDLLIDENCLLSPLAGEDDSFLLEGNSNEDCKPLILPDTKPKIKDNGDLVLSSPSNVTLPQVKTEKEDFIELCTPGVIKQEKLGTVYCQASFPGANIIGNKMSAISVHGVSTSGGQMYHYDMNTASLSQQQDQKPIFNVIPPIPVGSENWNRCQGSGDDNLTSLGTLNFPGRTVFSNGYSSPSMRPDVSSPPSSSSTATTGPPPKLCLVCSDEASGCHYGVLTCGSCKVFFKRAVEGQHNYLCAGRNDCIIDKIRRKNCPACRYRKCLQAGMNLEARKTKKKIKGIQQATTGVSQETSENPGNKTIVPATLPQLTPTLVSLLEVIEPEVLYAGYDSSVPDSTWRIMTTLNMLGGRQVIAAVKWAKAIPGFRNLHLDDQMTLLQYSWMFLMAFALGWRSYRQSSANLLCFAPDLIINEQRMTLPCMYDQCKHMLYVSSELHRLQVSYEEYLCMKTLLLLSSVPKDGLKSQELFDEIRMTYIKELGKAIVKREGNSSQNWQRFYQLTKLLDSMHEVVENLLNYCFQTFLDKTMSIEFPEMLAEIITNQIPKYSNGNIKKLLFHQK
The test is described as follows: Human Glucocorticoid Receptor (GR) Assay (fluorescence polarization, Panvera/Invitrogen kit). Conditions: fluorescence polarization; GS Red tracer; 2 hours at room temperature; 100% control 10 μM Dexamethasone; read-out: Inhibition of GR binding, IC50. In kind it is binding. The gist of the method: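 Fluorescence polarization competition with recombinant GR and GS Red fluorescent ligand plus stabilizing peptide and DTT in potassium phosphate/sodium molybdate/EDTA buffer with DMSO. Incubated 2 hours at room temperature in the dark; 0% control DMSO, 100% control 10 μM dexamethasone.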
(In general: Fluorescence polarisation rises when a labelled molecule tumbles more slowly, as on binding a larger partner.)
By IC50 is commonly meant the concentration that inhibits the measured activity by half. In the case of `C[C@]12Cc3cnn(-c4ccc(F)cc4)c3C=C1CC[C@H]1[C@@H]3CC[C@](OC(=O)c4ccco4)(C(=O)SCF)[C@@]3(C)C[C@H](O)[C@@]12F` [Example 194, (1R,3aS,3bS,10aS,10bR,11S,12aS)-1-{[(Fluoromethyl)sulfanyl]carbonyl}-10b-fluoro-7-(4-fluorophenyl)-11-hydroxy-10a,12a-dimethyl-1,2,3,3a,3b,4,5,7,10,10a,10b,11,12,12a-tetradecahydrocyclopenta[5,6]naphtho[1,2-f]indazol-1-yl furan-2-carboxylate], the IC50 is 2.3 nM.

Regarding `C[C@]12Cc3cnn(-c4ccc(F)cc4)c3C=C1CC[C@H]1[C@@H]3CC[C@](OC(=O)C4CC4)(C(=O)SCC#N)[C@@]3(C)C[C@H](O)[C@@]12F` [Example 195, (1R,3aS,3bS,10aS,10bR,11S,12aS)-1-{[(Cyanomethyl)sulfanyl]carbonyl}-10b-fluoro-7-(4-fluorophenyl)-11-hydroxy-10a,12a-dimethyl-1,2,3,3a,3b,4,5,7,10,10a,10b,11,12,12a-tetradecahydrocyclopenta[5,6]naphtho[1,2]-indazol-1-yl cyclopropanecarboxylate], the IC50 amounted to 4.7 nM.

As to `C[C@]12Cc3cnn(-c4ccc(F)cc4)c3C=C1CC[C@H]1[C@@H]3CC[C@](OC(=O)C4CC4)(C(=O)SCF)[C@@]3(C)C[C@H](O)[C@@]12F` [Example 196, (1R,3aS,3bS,10aS,10bR,11S,12aS)-1-{[(Fluoromethyl)sulfanyl]carbonyl}-10b-fluoro-7-(4-fluorophenyl)-11-hydroxy-10a,12a-dimethyl-1,2,3,3a,3b,4,5,7,10,10a,10b,11,12,12a-tetradecahydrocyclopenta[5,6]naphtho[1,2-f]indazol-1-yl cyclopropanecarboxylate], the IC50 was 14 nM. The same measure for `COCC(=O)O[C@]1(C(=O)SCC#N)CC[C@H]2[C@@H]3CCC4=Cc5c(cnn5-c5ccc(F)cc5)C[C@]4(C)[C@@]3(F)[C@@H](O)C[C@@]21C` [Example 197, (1R,3aS,3bS,10aS,10bR,11S,12aS)-1-{[(Cyanomethyl)sulfanyl]carbonyl}-10b-fluoro-7-(4-fluorophenyl)-11-hydroxy-10a,12a-dimethyl-1,2,3,3a,3b,4,5,7,10,10a,10b,11,12,12a-tetradecahydrocyclopenta[5,6]naphtho[1,2-f]indazol-1-yl methoxyacetate]: 3.3 nM; for `COCC(=O)O[C@]1(C(=O)SCF)CC[C@H]2[C@@H]3CCC4=Cc5c(cnn5-c5ccc(F)cc5)C[C@]4(C)[C@@]3(F)[C@@H](O)C[C@@]21C` [Example 198, (1R,3aS,3bS,10aS,10bR,11S,12aS)-1-{[(Fluoromethyl)sulfanyl]carbonyl}-10b-fluoro-7-(4-fluorophenyl)-11-hydroxy-10a,12a-dimethyl-1,2,3,3a,3b,4,5,7,10,10a,10b,11,12,12a-tetradecahydrocyclopenta[5,6]naphtho[1,2-f]indazol-1-yl methoxyacetate]: 2.6 nM. The same measure for `CCC(=O)O[C@]1(C(=O)SCC#N)CC[C@H]2[C@@H]3CCC4=Cc5c(cnn5-c5ccc(F)cc5)C[C@]4(C)[C@@]3(F)[C@@H](O)C[C@@]21C` [Example 199, (1R,3aS,3bS,10aS,10bR,11S,12aS)-1-{[(Cyanomethyl)sulfanyl]carbonyl}-10b-fluoro-7-(4-fluorophenyl)-11-hydroxy-10a,12a-dimethyl-1,2,3,3a,3b,4,5,7,10,10a,10b,11,12,12a-tetradecahydrocyclopenta[5,6]naphtho[1,2-f]indazol-1-yl propanoate]: 4.6 nM; for `CCC(=O)O[C@]1(C(=O)SCF)CC[C@H]2[C@@H]3CCC4=Cc5c(cnn5-c5ccc(F)cc5)C[C@]4(C)[C@@]3(F)[C@@H](O)C[C@@]21C` [Example 200, (1R,3aS,3bS,10aS,10bR,11S,12aS)-1-{[(Fluoromethyl)sulfanyl]carbonyl}-10b-fluoro-7-(4-fluorophenyl)-11-hydroxy-10a,12a-dimethyl-1,2,3,3a,3b,4,5,7,10,10a,10b,11,12,12a-tetradecahydrocyclopenta[5,6]naphtho[1,2-f]indazol-1-yl propanoate]: 14 nM; for `C[C@]12Cc3cnn(-c4ccc(F)cc4)c3C=C1CC[C@H]1[C@@H]3CC[C@](OC(=O)c4cocn4)(C(=O)SCC#N)[C@@]3(C)C[C@H](O)[C@@]12F` [Example 201, (1R,3aS,3bS,10aS,10bR,11S,12aS)-1-{[(Cyanomethyl)sulfanyl]-carbonyl}-10b-fluoro-7-(4-fluorophenyl)-11-hydroxy-10a,12a-dimethyl-1,2,3,3a,3b,4,5,7,10,10a,10b,11,12,12a-tetradecahydrocyclopenta[5,6]naphtho[1,2-f]indazol-1-yl 1,3-oxazole-4-carboxylate]: 5.3 nM. The same measure for `C[C@]12Cc3cnn(-c4ccc(F)cc4)c3C=C1CC[C@H]1[C@@H]3CC[C@](OC(=O)c4cocn4)(C(=O)SCF)[C@@]3(C)C[C@H](O)[C@@]12F` [Example 202, (1R,3aS,3bS,10aS,10bR,11S,12aS)-1-{[(Fluoromethyl)sulfanyl]carbonyl}-10b-fluoro-7-(4-fluorophenyl)-11-hydroxy-10a,12a-dimethyl-1,2,3,3a,3b,4,5,7,10,10a,10b,11,12,12a-tetradecahydrocyclopenta[5,6]naphtho[1,2-f]indazol-1-yl 1,3-oxazole-4-carboxylate]: 5.8 nM; for `CCC(=O)O[C@]1(C(=O)SCC#N)CC[C@H]2[C@@H]3CCC4=Cc5c(cnn5-c5ccc(F)nc5)C[C@]4(C)[C@@]3(F)[C@@H](O)C[C@@]21C` [Example 203, (1R,3aS,3bS,10aS,10bR,11S,12aS)-1-{[(Cyanomethyl)sulfanyl]carbonyl}-10b-fluoro-7-(6-fluoropyridin-3-yl)-11-hydroxy-10a,12a-dimethyl-1,2,3,3a,3b,4,5,7,10,10a,10b,11,12,12a-tetradecahydrocyclopenta[5,6]naphtho[1,2-f]indazol-1-yl propanoate]: 2.3 nM; for `CCC(=O)O[C@]1(C(=O)SCF)CC[C@H]2[C@@H]3CCC4=Cc5c(cnn5-c5ccc(F)nc5)C[C@]4(C)[C@@]3(F)[C@@H](O)C[C@@]21C` [Example 204, (1R,3aS,3bS,10aS,10bR,11S,12aS)-1-{[(Fluoromethyl)sulfanyl]carbonyl}-10b-fluoro-7-(6-fluoropyridin-3-yl)-11-hydroxy-10a,12a-dimethyl-1,2,3,3a,3b,4,5,7,10,10a,10b,11,12,12a-tetradecahydrocyclopenta[5,6]naphtho[1,2-f]indazol-1-yl propanoate]: 3.3 nM.

In the case of `COCC(=O)O[C@]1(C(=O)SCC#N)CC[C@H]2[C@@H]3CCC4=Cc5c(cnn5-c5ccc(F)nc5)C[C@]4(C)[C@@]3(F)[C@@H](O)C[C@@]21C` [Example 205, (1R,3aS,3bS,10aS,10bR,11S,12aS)-1-{[(Cyanomethyl)sulfanyl]carbonyl}-10b-fluoro-7-(6-fluoropyridin-3-yl)-11-hydroxy-10a,12a-dimethyl-1,2,3,3a,3b,4,5,7,10,10a,10b,11,12,12a-tetradecahydrocyclopenta[5,6]naphtho[1,2-f]indazol-1-yl methoxyacetate], the IC50 is 1.4 nM.
